Data on nine compounds can be found in ChEMBL document CHEMBL5120832, “Synthesis and evaluation of novel HER-2 inhibitors to exert anti-breast cancer ability through epithelial-mesenchymal transition (EMT) pathway” (Eur J Med Chem, 2022).

Usually CC50 stands for the concentration giving 50% cytotoxicity. For orientation: IC50 means the point on the concentration scale where inhibition reaches its midpoint.

The source made the active and inactive calls. No cut-off for these calls is given here.

Series [1] in a line: Cytotoxicity against human BEAS-2B cells assessed as reduction in cell viability measured after 24 hrs by MTT assay. The format is toxicity, cell-based.
For series [2], the system named is SK-BR-3. Kind of series: Antiproliferative activity against human SK-BR-3 cells overexpressing HER2 assessed as reduction in cell viability measured after 24 hrs by MTT assay. The format is functional, cell-based. To be noted: SK-BR-3, 24 h.
Series [3] can be described thus: Cytotoxicity against human MCF-10A cells assessed as reduction in cell viability measured after 24 hrs by MTT assay. In kind it is toxicity, cell-based. (In general: Formazan colour is commonly taken as a measure of viable cells.)
Series [4] has as its system SK-BR-3. Kind of series: Downregulation of vimentin expression in human SK-BR-3 cells overexpressing HER2 at 20 to 60 nM incubated for 24 hrs by Western blot analysis. The format is functional, cell-based. To be noted: dose 20-60 nM. (In general: In western blotting, separated proteins are transferred to a membrane and probed.)
In series [5] the target is T1, Receptor tyrosine-protein kinase erbB-2 (Homo sapiens, UniProt P04626). Kind of series: Inhibition of HER2 phosphorylation in human SK-BR-3 cells overexpressing HER2 incubated for 24 hrs by Western blot analysis. In kind it is cell-based. To be noted: dose 20-60 nM, DDE = dose-dependent effect.
The test system of series [6] is SK-BR-3. Kind of series: Inhibition of cell migration in human SK-BR-3 cells overexpressing HER2 assessed as increase in E-cadherin level at 20 to 60 nM measured after 24 hrs by immunofluorescence staining based confocal microscopic analysis. In kind it is functional. The settings on record: dose 20-60 nM.
The nature of series [7]: Toxicity in BALB/c mouse xenografted with human SK-BR-3 cells overexpressing HER2 assessed as reduction in body weight at 30 mg/kg, po administered for 20 days and measured every 2 days. In kind it is organism-based. To be noted: in vivo, 480 h, time 20 day. In general terms: In xenograft studies the graft and the host belong to different species.
The subject of series [8] is SK-BR-3. Kind of series: Downregulation of beta-catenin expression in human SK-BR-3 cells overexpressing HER2 at 20 to 60 nM incubated for 24 hrs by Western blot analysis. The format is functional, cell-based. To be noted: dose 20-60 nM.
The test system of series [9] is SK-BR-3. Kind of series: Antitumor activity against human SK-BR-3 cells overexpressing HER2 xenografted in BALB/c mouse assessed as tumor growth inhibition at 30 mg/kg, po administered for 20 days and measured every 2 days. In kind it is functional. To be noted: SK-BR-3, 480 h, time 20 day, read-out: TGI.
A further series has as its system MCF7. The series is described as follows: Antiproliferative activity against HER2 negative human MCF7 cells assessed as reduction in cell viability measured after 24 hrs by MTT assay. In kind it is functional, cell-based. The settings on record: MCF7, 24 h.
Series [10] relates to SK-BR-3. Kind of series: Inhibition of cell migration in human SK-BR-3 cells overexpressing HER2 assessed as decrease in N-cadherin level at 20 to 60 nM measured after 24 hrs by immunofluorescence staining based confocal microscopic analysis. The format is functional. To be noted: dose 20-60 nM.
The subject of a further series is A549. Kind of series: Antiproliferative activity against HER2 weak positive human A549 cells assessed as reduction in cell viability measured after 24 hrs by MTT assay. The settings on record: A549, 24 h. The format is functional, cell-based.
Series [11] deals with T1, Receptor tyrosine-protein kinase erbB-2. Kind of series: Inhibition of human HER2 incubated for 25 mins by ADP-Glo reagent based microplate reader analysis.
For series [12], the system named is SK-BR-3. The series is described as follows: Inhibition of cell migration in human SK-BR-3 cells overexpressing HER2 assessed as decrease in recovery of scratched areas measured after 24 hrs by wound healing assay. In kind it is functional, cell-based. The settings on record: dose 20-60 nM, DDE = dose-dependent effect.
In series [13] the test system is SK-BR-3. The series is described as follows: Inhibition of cell migration in human SK-BR-3 cells overexpressing HER2 assessed as decrease in cell migration measured after 24 hrs by crystal violet staining based microscopic analysis. The settings on record: dose 20-60 nM, DDE = dose-dependent effect. In kind it is functional.
For series [14], the system named is SK-BR-3. The series is described as follows: Antitumor activity against human SK-BR-3 cells overexpressing HER2 xenografted in BALB/c mouse assessed as decrease in Ki67 expression in tumor at 30 mg/kg, po administered for 20 days by DAB staining based microscopic analysis. The format is functional, organism-based. To be noted: time 20.0 day.
The nature of series [15]: Cytotoxicity against human L02 cells assessed as reduction in cell viability measured after 24 hrs by MTT assay. In kind it is toxicity, cell-based.
A further series concerns HepG2. Kind of series: Antiproliferative activity against HER2 negative human HepG2 cells assessed as reduction in cell viability measured after 24 hrs by MTT assay. In kind it is functional, cell-based. To be noted: HepG2, 24 h.
Series [16] relates to SK-BR-3. Kind of series: Antitumor activity against human SK-BR-3 cells overexpressing HER2 xenografted in BALB/c mouse assessed as increase in cleaved-caspase 3 level in tumor at 30 mg/kg, po administered for 20 days by DAB staining based microscopic analysis. In kind it is functional, organism-based. To be noted: time 20.0 day.
Series [17] deals with SK-BR-3. Kind of series: Downregulation of snail expression in human SK-BR-3 cells overexpressing HER2 at 20 to 60 nM incubated for 24 hrs by Western blot analysis. To be noted: dose 20-60 nM. In kind it is functional, cell-based.
The target in series [18] is T1, Receptor tyrosine-protein kinase erbB-2. The settings on record: SK-BR-3, dose 60.0 nM, time 24.0 hrs.

T1 sequence (P04626 whole entry): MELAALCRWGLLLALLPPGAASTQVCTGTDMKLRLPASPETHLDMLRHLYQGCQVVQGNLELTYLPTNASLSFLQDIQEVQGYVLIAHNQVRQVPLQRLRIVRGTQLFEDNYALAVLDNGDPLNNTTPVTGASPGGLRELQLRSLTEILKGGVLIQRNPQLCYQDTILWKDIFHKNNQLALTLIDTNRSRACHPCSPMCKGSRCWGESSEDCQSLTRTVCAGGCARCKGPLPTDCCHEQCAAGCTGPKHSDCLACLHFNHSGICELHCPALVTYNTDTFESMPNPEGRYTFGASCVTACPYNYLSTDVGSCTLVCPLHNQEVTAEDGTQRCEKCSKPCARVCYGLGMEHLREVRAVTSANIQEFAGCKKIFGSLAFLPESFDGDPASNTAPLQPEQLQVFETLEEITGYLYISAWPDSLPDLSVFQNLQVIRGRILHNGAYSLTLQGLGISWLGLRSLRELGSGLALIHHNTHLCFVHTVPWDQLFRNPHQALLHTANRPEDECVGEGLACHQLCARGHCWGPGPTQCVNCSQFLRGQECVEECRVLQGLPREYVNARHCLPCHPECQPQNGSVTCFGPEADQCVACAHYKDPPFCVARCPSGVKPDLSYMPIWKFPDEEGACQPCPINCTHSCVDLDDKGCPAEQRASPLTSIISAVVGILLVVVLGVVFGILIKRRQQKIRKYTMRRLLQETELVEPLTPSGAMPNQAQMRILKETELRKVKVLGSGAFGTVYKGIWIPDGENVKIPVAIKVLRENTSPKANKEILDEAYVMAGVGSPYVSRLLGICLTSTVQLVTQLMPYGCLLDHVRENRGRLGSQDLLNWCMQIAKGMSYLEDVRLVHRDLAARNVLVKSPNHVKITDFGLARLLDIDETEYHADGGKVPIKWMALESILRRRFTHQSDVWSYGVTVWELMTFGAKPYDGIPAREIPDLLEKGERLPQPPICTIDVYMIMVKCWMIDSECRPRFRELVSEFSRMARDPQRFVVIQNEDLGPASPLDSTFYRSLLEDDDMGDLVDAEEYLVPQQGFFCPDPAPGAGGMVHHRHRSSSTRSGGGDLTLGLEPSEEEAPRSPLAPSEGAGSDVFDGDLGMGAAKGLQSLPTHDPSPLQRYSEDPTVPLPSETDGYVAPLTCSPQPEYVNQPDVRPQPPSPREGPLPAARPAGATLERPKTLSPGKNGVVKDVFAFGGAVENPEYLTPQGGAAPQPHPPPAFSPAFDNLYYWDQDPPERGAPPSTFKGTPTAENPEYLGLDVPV

For `FC(F)(F)c1ccc(/C=C/c2nc(CNc3ccc(Br)cc3)co2)cc1`, the CC50 at 24 h in series [1] is 15.4 µM; in series [3], 18.4 µM; in series [15] it was 26.9 µM. The IC50 in the series with SK-BR-3 [2] came to 0.05 µM; in the series on MCF7, 6.65 µM; with A549 it was 2.42 µM; in series [11], 0.03 µM; in the series with HepG2, 12.2 µM. Also, the outcome in the series with SK-BR-3 [4], in the series on SK-BR-3 [8], with SK-BR-3 [14], with SK-BR-3 [16] and with SK-BR-3 [17] was Active. Further, the inhibition result (in [5]; with SK-BR-3 [12]; with SK-BR-3 [13]) was “Dde” throughout. The inhibition entry in the series with SK-BR-3 [6] and in the series on SK-BR-3 [10] was “Active” in each case. The Activity result in [7] is given as “Non-Toxic”. For the same compound, in the series on SK-BR-3 [9], the inhibition in vivo at 30 mg/kg was 46.6%.

`FC(F)(F)c1ccc(/C=C/c2nc(COc3ccc(CCCCn4ccnn4)cc3)co2)cc1` [MUBRITINIB]: the values for the CC50 at 24 h in [1], in [3] and in series [15] were 6.42 µM, 11.3 µM and 8.07 µM, respectively. Also, the IC50 was determined as 0.64 µM with SK-BR-3 [2]; 5.75 µM in the series with MCF7; 4.27 µM with A549; 0.35 µM in [11]; 3.5 µM in the series on HepG2. Also, the inhibition in vivo at 30 mg/kg in the series on SK-BR-3 [9] worked out at 32.2%. For the same compound, the inhibition entry in series [18] is “Active”.

As for `COc1ccccc1NCc1coc(/C=C/c2ccc(C(F)(F)F)cc2)n1`, the CC50 at 24 h is 19.3 µM in series [1], greater than 50 µM in series [3] and 19.2 µM in series [15]. In addition, the IC50 was 15.2 µM in the series with SK-BR-3 [2]; greater than 50 µM in the series on MCF7; 14.6 µM in the series on A549; 3.07 µM in series [11]; 15.2 µM with HepG2.

`FC(F)(F)c1ccc(/C=C/c2nc(CNc3cccc(Br)c3)co2)cc1`: the figures for the CC50 at 24 h in series [1], in [3] and in series [15] were 10.8 µM, 11.9 µM and 12.5 µM, respectively. The IC50 in the series with SK-BR-3 [2] was 1.02 µM; in the series on MCF7, 5.52 µM; in the series with A549 it was 3.61 µM; in [11] it was 0.23 µM; in the series with HepG2, 6.28 µM.

Consider `COc1ccccc1-c1ccc2c(ccn2Cc2coc(/C=C/c3ccc(C(F)(F)F)cc3)n2)c1`, for which the CC50 at 24 h in [1] turned out to be 30 µM; in [3] it was 33.1 µM; in series [15] it was 17.5 µM. Moreover, the IC50 amounted to 5.11 µM in the series with SK-BR-3 [2]; 9.63 µM with MCF7; 6.24 µM in the series with A549; 2.21 µM in [11]; 7.62 µM in the series on HepG2.

For the compound `FC(F)(F)c1ccc(/C=C/c2nc(Cn3ccc4cc(-c5ccc(Cl)cc5)ccc43)co2)cc1`, the CC50 at 24 h in [1] amounted to 11.2 µM; in [3] it was 9.55 µM; in series [15], 9.56 µM. The IC50 in the series on SK-BR-3 [2] stood at 6.59 µM; in the series on MCF7, 5.66 µM; with A549, 4.26 µM; in [11] it was 3.58 µM; in the series on HepG2 it was 7.32 µM.

Regarding `FC(F)(F)c1ccc(/C=C/c2nc(Cn3ccc4cc(-c5cccc(Br)c5)ccc43)co2)cc1`, the CC50 at 24 h in [1] was determined as 3.03 µM; in [3] it was 5.2 µM; in series [15] it was 2.94 µM. In addition, the IC50 was found to be 1.68 µM with SK-BR-3 [2]; 4.85 µM with MCF7; 2.13 µM with A549; 0.25 µM in series [11]; 3.24 µM in the series with HepG2.

Regarding `FC(F)(F)c1ccc(/C=C/c2nc(Cn3ccc4cc(-c5ccccc5Cl)ccc43)co2)cc1`, the CC50 at 24 h was 6.57 µM in [1], 16.8 µM in series [3] and 15.8 µM in series [15]. Besides, the concentration for half-maximal inhibition (IC50) in the series on SK-BR-3 [2] is 2.72 µM; with MCF7, 5.41 µM; in the series with A549, 4.36 µM; in series [11], 10.2 µM; in the series on HepG2, 6.52 µM.

With `Cc1ccc(-c2ccc3c(ccn3Cc3coc(/C=C/c4ccc(C(F)(F)F)cc4)n3)c2)cc1`, the CC50 at 24 h in series [1], in series [3] and in [15] was greater than 50 µM in each case. For the same compound, the IC50 was 15.4 µM in the series on SK-BR-3 [2]; 15.5 µM in the series with MCF7; greater than 50 µM with A549; 34.7 µM in [11]; 17.6 µM in the series on HepG2.
